These results are taken from patent US20200010482A1, “INHIBITORS OF BETA SECRETASE” (Janssen Pharmaceutica NV, priority 2017, published 2020).

The target of one test is T1, BACE2 (Homo sapiens, UniProt Q9Y5Z0).
T1 construct: recombinant BACE2 protein in a final concentration of 0.4 μg/ml
T1 sequence (Q9Y5Z0 63-518): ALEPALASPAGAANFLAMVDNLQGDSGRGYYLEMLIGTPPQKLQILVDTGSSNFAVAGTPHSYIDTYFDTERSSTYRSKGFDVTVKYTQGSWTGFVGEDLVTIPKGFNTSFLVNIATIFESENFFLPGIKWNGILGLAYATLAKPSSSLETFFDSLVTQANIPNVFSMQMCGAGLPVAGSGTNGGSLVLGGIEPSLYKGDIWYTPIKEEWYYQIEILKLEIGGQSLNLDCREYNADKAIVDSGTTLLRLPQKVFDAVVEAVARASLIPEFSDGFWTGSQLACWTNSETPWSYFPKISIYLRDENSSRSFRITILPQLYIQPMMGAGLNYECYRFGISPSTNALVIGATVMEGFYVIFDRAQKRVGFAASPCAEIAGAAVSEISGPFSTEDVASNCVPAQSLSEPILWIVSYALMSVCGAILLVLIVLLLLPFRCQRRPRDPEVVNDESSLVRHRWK
The test can be described thus: BACE2 biochemical FRET based assay. Conditions: recombinant BACE2 0.4 μg/ml, 10 μM substrate, 450 min, pH 5.0; for IC50: read-out: BIOCHEMICAL FRET BASED ASSAY pIC50 (converted). From the text: (§1) This assay is a Fluorescence Resonance Energy Transfer Assay (FRET) based assay. The substrate for this assay contains the ‘Swedish’ Lys-Met/Asn-Leu mutation of the amyloid precursor protein (APP) beta-secretase cleavage site. This substrate also contains two fluorophores: (7-methoxycoumarin-4-yl) acetic acid (Mca) is a fluorescent donor with excitation wavelength at 320 nm and emission at 405 nm and 2,4-Dinitrophenyl (Dnp) is a proprietary quencher acceptor. […] Upon cleavage by the beta-secretase, the fluorophore Mca is separated from the quenching group Dnp, restoring the full fluorescence yield of the donor. The increase in fluorescence is linearly related to the rate of proteolysis.
Briefly in a 384-well format recombinant BACE2 protein in a final concentration of 0.4 μg/ml is incubated for 450 minutes at room temperature with 10 μM substrate in incubation buffer (50 mM Citrate buffer pH 5.0, 0.05% PEG, no DMSO) in the absence or presence of compound. Next the amount of proteolysis is directly measured by fluorescence measurement at T=0 and T=450 (excitation at 320 nm and emission at 405 nm). Results are expressed in RFU (Relative Fluorescence Units), as difference between T450 and TO.
(§2) A best-fit curve is fitted by a minimum sum of squares method to the plot of % Controlmin versus compound concentration. From this an IC50 value (inhibitory concentration causing 50% inhibition of activity) can be obtained. • LC=Median of the low control values=Low control: Reaction without enzyme • HC=Median of the High control values=High Control: Reaction with enzyme
(§3) % Effect=100−[(sample−LC)/(HC−LC)*100]
(§4) % Control=(sample/HC)*100
(§5) % Controlmin=(sample−LC)/(HC−LC)*100

Test [1] relates to Abeta 1-42 produced and secreted by SKNBE2 cells expressing hAPP695. The test can be described thus: Cellular αLisa assay in SKNBE2 cells, Abeta 1-42. It counts as cell-based, human. Conditions: SKNBE2 cells expressing hAPP695, 18 hours incubation; for IC50: Homo sapiens, SKNBE2, 18 h, read-out: CELLULAR αLISA ASSAY IN SKNBE2 CELLS ABETA 42 PIC50 (converted). The protocol:
In two αLisa assays the levels of Abeta total and Abeta 1-42 produced and secreted into the medium of human neuroblastoma SKNBE2 cells are quantified. The assay is based on the human neuroblastoma SKNBE2 expressing the wild type Amyloid Precursor Protein (hAPP695). The compounds are diluted and added to these cells, incubated for 18 hours and then measurements of Abeta 1-42 and Abeta total are taken. Abeta total and Abeta 1-42 are measured by sandwich αLisa. αLisa is a sandwich assay using biotinylated antibody AbN/25 attached to streptavidin coated beads and antibody Ab4G8 or cAb42/26 conjugated acceptor beads for the detection of Abeta total and Abeta 1-42 respectively. In the presence of Abeta total or Abeta 1-42, the beads come into close proximity. The excitation of the donor beads provokes the release of singlet oxygen molecules that trigger a cascade of energy transfer in the acceptor beads, resulting in light emission. Light emission is measured after 1 hour incubation (excitation at […] and emission at 615 nm).
A best-fit curve is fitted by a minimum sum of squares method to the plot of % Controlmin versus compound concentration. From this an IC50 value (inhibitory concentration causing 50% inhibition of activity) can be obtained. • LC=Median of the low control values=Low control: cells preincubated without compound, without biotinylated Ab in the αLisa • HC=Median of the High control values=High Control: cells preincubated without compound
as §3, §4, §5

A further test deals with T2, BACE1 (Homo sapiens, UniProt P56817).
T2 construct: recombinant BACE1 protein in a final concentration of 0.04 μg/ml
T2 sequence (P56817 46-501): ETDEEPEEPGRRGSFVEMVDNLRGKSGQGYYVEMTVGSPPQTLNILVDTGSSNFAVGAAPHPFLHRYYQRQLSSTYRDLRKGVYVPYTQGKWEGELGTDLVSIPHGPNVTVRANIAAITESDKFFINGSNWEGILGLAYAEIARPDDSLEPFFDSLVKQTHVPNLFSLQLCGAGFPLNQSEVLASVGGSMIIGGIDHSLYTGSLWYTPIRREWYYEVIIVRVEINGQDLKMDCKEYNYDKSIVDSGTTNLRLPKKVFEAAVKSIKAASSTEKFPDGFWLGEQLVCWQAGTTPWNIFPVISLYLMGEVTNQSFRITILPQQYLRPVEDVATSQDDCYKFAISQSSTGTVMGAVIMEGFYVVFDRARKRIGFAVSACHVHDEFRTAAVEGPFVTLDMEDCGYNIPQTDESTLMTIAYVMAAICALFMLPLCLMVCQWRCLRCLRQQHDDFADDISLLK
As to the kind of experiment: BACE1 biochemical FRET based assay. Conditions: recombinant BACE1 0.04 μg/ml, 20 μM substrate, 450 min, pH 5.0; for IC50: read-out: BIOCHEMICAL FRET BASED ASSAY pIC50 (converted).
Description: as §1, with “this assay is an APP derived 13 amino acids peptide that contains the” for “this assay contains the”, “cleavage by BACE1, the fluorophore” for “cleavage by the beta-secretase, the fluorophore”
Briefly in a 384-well format recombinant BACE1 protein in a final concentration of 0.04 μg/ml is incubated for 450 minutes at room temperature with 20 μM substrate in incubation buffer (50 mM Citrate buffer pH 5.0, 0.05% PEG) in the presence of compound or DMSO. Next the amount of proteolysis is directly measured by fluorescence measurement (excitation at 320 nm and emission at 405 nm) at different incubation times (0, 30, 60, 90, 120 and 450 min). For every experiment a time curve (every 30 min between 0 min and 120 min) is used to determine the time where we find the lowest basal signal of the high control. The signal at this time (Tx) is used to subtract from the signal at 450 min. Results are expressed in RFU, as difference between T450 and Tx.
as §2, §3, §4, §5

Consider `COc1ncc(-c2ccncc2C)c2c1CC1(c3ccc(F)cc3F)N=C(N)OCC1C2` (racemic) [Compound 32], for which the IC50 on BACE2 is 1120 nM; in test [1] it was 7.24 nM; at BACE1, 50.1 nM.
With `COc1nccc2c1C[C@@]1(c3cc(-c4cncnc4)ccc3F)N=C(N)SC[C@H]1C2` [Compound 185], the IC50 at BACE2 is greater than 10000 nM; in test [1] it was greater than 8910 nM; on BACE1, greater than 10000 nM.
On to `COc1ncc(-c2cncc(C)c2)c2c1C[C@]1(c3ccc(F)cc3F)N=C(N)SC[C@@H]1C2` [Compound 108], for which the figures for the IC50 (in test [1]; at BACE1) were 1.32 nM and 7.76 nM, respectively.
Take `COc1nccc2c1CC1(c3cc(Br)c(F)cc3F)N=C(N)SCC1C2` (racemic) [Compound 6]: the results for the IC50 (at BACE2; in test [1]; on BACE1) were 219 nM, 200 nM and 234 nM, respectively.
As for `COc1ccncc1-c1cnc(OC)c2c1C[C@H]1CSC(N)=N[C@@]1(c1ccc(F)cc1F)C2` [Compound 103], the IC50 was 2570 nM at BACE2, 13.8 nM in test [1] and 209 nM at BACE1.
In the case of `COc1nccc2c1CC1(c3cc([N+](=O)[O-])c(F)cc3F)N=C(N)SCC1C2` (racemic) [Compound 8], the IC50 on BACE2 is 537 nM; in test [1] it was 135 nM; on BACE1, 219 nM.
In the case of `COc1ncc(Br)c2c1CC1(c3cc(Br)c(F)cc3F)N=C(N)SCC1C2` (racemic) [Compound 19], the IC50 at BACE2 is 282 nM; in test [1], 417 nM; on BACE1 it was 162 nM.
In the same order, the values of `COc1nccc2c1CC1(c3cc(C#N)ccc3F)N=C(N)SCC1C2` (racemic) [Compound 9] are 219 nM, 20.9 nM and 132 nM.
For the molecule `COc1ncc(-c2cnccc2C)c2c1CC1(c3cc(O)ccc3F)N=C(N)SCC1C2` (racemic) [Compound 26], the IC50 is 479 nM on BACE2, 42.7 nM in test [1] and 25.1 nM on BACE1.
Consider `COCC(C)NCc1ccc(F)c(C23Cc4c(ccnc4OC)CC2CSC(N)=N3)c1` (racemic) [Compound 13], for which the values for the IC50 (at BACE2; in test [1]; at BACE1) were 39.8 nM, 1.45 nM and 70.8 nM, respectively.
On to `COCC(=O)Nc1cc(C23Cc4c(ccnc4OC)CC2CSC(N)=N3)c(F)cc1F` (single isomer, unassigned) [Compound 198], for which the IC50 at BACE2 is 501 nM; at BACE1, 1070 nM. In addition, the “CELLULAR αLISA ASSAY IN SKNBE2 CELLS ABETA 42 PIC50” value in test [1] amounted to 6.58.
For `COc1nccc2c1C[C@]1(c3ccc(F)cc3F)N=C(N)OC[C@@H]1C2` (racemic) [Compound 30], the IC50 at BACE2 is 1150 nM; in test [1], 170 nM; on BACE1, 692 nM.
Consider `COc1ncc(-c2cnccc2C)c2c1C[C@]1(c3cc(-c4cncnc4)ccc3F)N=C(N)SC[C@@H]1C2` (racemic) [Compound 27], for which the IC50 at BACE2 was 3980 nM; in test [1], 3.89 nM; on BACE1, 11.7 nM.
In the same order, the values of `COc1ncc(-c2cccnc2)c2c1C[C@]1(c3ccc(F)cc3F)N=C(N)OC[C@@H]1C2` (racemic) [Compound 31] are 178 nM, 8.91 nM and 69.2 nM.
Turning to `COc1nccc2c1C[C@]1(c3cc(OCC4CC4)ccc3F)N=C(N)SC[C@@H]1C2` [Compound 136], the IC50 at BACE2 was 14.8 nM; in test [1], 18.6 nM; at BACE1, 14.8 nM.
On to `COc1nccc2c1C[C@@]1(c3cc(OCC4CC4)ccc3F)N=C(N)SC[C@H]1C2` [Compound 184], for which the IC50 at BACE2 was greater than 10000 nM; in test [1], 5370 nM; at BACE1, greater than 10000 nM.
As for `COc1ncc(C2=CCOCC2)c2c1C[C@]1(c3ccc(F)cc3F)N=C(N)SC[C@@H]1C2` [Compound 46], the “BIOCHEMICAL FRET BASED ASSAY pIC50” value at BACE2 is recorded as 8.44; on BACE1, 8.64. For the same molecule, the “CELLULAR αLISA ASSAY IN SKNBE2 CELLS ABETA 42 PIC50” value in test [1] was found to be 9.21.
In the case of `COc1nccc2c1CC1(c3ccc(Cl)cc3F)N=C(N)SCC1C2` (racemic) [Compound 7], the IC50 on BACE2 was 155 nM; in test [1] it was 70.8 nM; on BACE1 it was 145 nM.
Consider `COc1ncc(Br)c2c1C[C@]1(c3cc(O)ccc3F)N=C(N)SC[C@@H]1C2` [Compound 42], for which the IC50 on BACE2 was 29.5 nM; in test [1] it was 155 nM; on BACE1, 27.5 nM.
For `COc1nccc2c1C[C@@]1(c3cc(-c4cncc(C#N)c4)ccc3F)N=C(N)SC[C@H]1C2` [Compound 186], the IC50 at BACE2 was greater than 10000 nM; in test [1], greater than 8910 nM; on BACE1, greater than 10000 nM.
As for `COc1nccc2c1C[C@]1(c3cc(-c4cncnc4)ccc3F)N=C(N)SC[C@@H]1C2` [Compound 38], the IC50 on BACE2 is 229 nM; in test [1] it was 3.55 nM; at BACE1, 15.5 nM.
For the molecule `COCC(=O)Nc1cc(C23Cc4c(ccnc4OC)CC2CSC(N)=N3)c(F)cc1F` (single isomer, unassigned) [Compound 199], the IC50 on BACE2 was 7.08 nM; on BACE1, 16.2 nM. In addition, in test [1], the “CELLULAR αLISA ASSAY IN SKNBE2 CELLS ABETA 42 PIC50” value turned out to be 8.36.
As for `COc1nccc2c1CC1(c3cc4c(cc3F)OCC(=O)N4)N=C(N)SCC1C2` (racemic) [Compound 15], the results for the IC50 (at BACE2; in test [1]; on BACE1) were 115 nM, 17.4 nM and 30.2 nM, respectively.
In the same order, the values of `COc1ncc(Br)c2c1C[C@@]1(c3cc(O)ccc3F)N=C(N)SC[C@H]1C2` [Compound 189] are greater than 10000 nM, 6920 nM and greater than 10000 nM.
